Row | melting point | Compound
1 | 155 to 157 °C | COc1ccc(Cl)cc1NC(=O)[C@H]1[C@H](c2ccccc2)C1(C)C (relative stereo)
2 | 157 to 159 °C | CCCOc1nc2cccc(C(=O)OCC)c2n1Cc1ccc(-c2ccccc2-c2nnn[nH]2)cc1
3 | 78 to 80 °C | COc1ccc2c(c1)C(=O)C(=O)C=C2
4 | 132 to 135 °C | O=C(O)c1ccc(OCCCCCCO)cc1
5 | 151 to 152 °C | CCCCc1ccc(NC(=O)c2ccc([N+](=O)[O-])cc2)cc1
6 | 165 to 166 °C | OC1c2ccc(F)cc2SC1Cn1ccnc1 (stereo not drawn)
7 | 143 to 144 °C | COc1ccc(-n2nc(Sc3cccc(OC)c3)c(C)c(C#N)c2=O)cc1
8 | 153 to 156 °C | O=c1n(CCCC2CCCCC2)ccn1-c1ccc([N+](=O)[O-])cc1
9 | 260 °C | CC(=O)c1ccc2c(c1)C(n1ccccc1=O)C(O)C(C)(C)O2 (stereo not drawn)
10 | 63 to 65 °C | C#CC[C@@H](NCCCNC(=O)OCc1ccccc1)c1nc2cc(Cl)ccc2c(=O)n1Nc1ccccc1
11 | 79 to 80 °C | c1ccc2c(NCCN3CCOCC3)noc2c1
12 | 228 to 230 °C | CCCC=Nc1cc(CO)cc(Nc2c3ccccc3nc3ccccc23)c1
13 | 166 °C | CNC(=C[N+](=O)[O-])NCCSCc1ncccc1Cl
14 | > 250 °C | COc1cc2nc(N3CCN(c4nc5c([nH]4)CCCCC5)CC3)nc(N)c2cc1OC
15 | 171 °C | Cn1ccc2cc(NC(=O)/C=C/c3ccc(C(C)(C)C)cc3)ccc21
16 | 91.9 to 92 °C | O=S1(=O)CCN2C=C(F)C=C(c3ccc(Oc4ccccc4)cc3)C2=N1
17 | 236 to 238 °C | COc1ccc(CC2SC(=O)NC2=O)cc1C(=O)NCc1ccc([N+](=O)[O-])cc1 (stereo not drawn)
18 | 195 to 222 °C | CCC(C)(C)c1cc(C(C)(C)CC)c2c(c1)C1(O)C(=O)c3ccccc3C1(O)O2 (stereo not drawn)
19 | 95 °C | CCOCc1cc2c(N)cccc2cn1
20 | 164 °C | O=C(O)C(=O)c1ccc(OCCOc2ccc3ccccc3c2)c([N+](=O)[O-])c1
21 | 133 to 136 °C | Cc1ccccc1OCC(=O)Nc1c(C)cccc1C(=O)O
22 | 160 to 162 °C | Nc1c(-c2cc(Cl)ccc2O)c2cc(I)ccc2[nH]c1=O
23 | 47 to 48 °C | C=CC(O)c1ccc2cc(OCCCCCC)ccc2c1 (stereo not drawn)
24 | 139 to 140 °C | Cc1nnc(-c2ccnc(NCc3cccnc3)c2)o1
25 | 129 to 130 °C | Cc1ccc(-c2ccc3c(c2)C=C(C(=O)Nc2ccc(CN(C)C4CCOCC4)cc2)CCO3)s1

Row | melting point | Compound
26 | 190 to 191 °C | COc1ccc2c(c1)c(SC(C)(C)C)c(CC(C)(C)C(=O)O)n2Cc1ccc(Cl)cc1
27 | 93 to 97 °C | CCOC(=O)COc1cccc2c1C[C@@H](NCc1ccccc1)[C@H](O)C2 (relative stereo)
28 | 85 to 86 °C | COc1cc(C)c(OCCCC(C)(C)C(=O)O)cc1C
29 | 117 to 118 °C | O=Cc1cc2c(s1)-c1ccccc1OC2C1=CCCC=C1 (stereo not drawn)
30 | 228 °C | N#Cc1cnc2sc(Cl)cc2c1Nc1ccc2[nH]ccc2c1
31 | 205 to 206 °C | O=C1Nc2ccc(NC(=O)C(=O)N3CCC(Cc4ccc(F)cc4)CC3)cc2C1=O
32 | 188 °C | CCCC(C)(O)C(=O)Nc1cc(Br)[nH]c(=O)c1 (stereo not drawn)
33 | 185 to 187 °C | CC(C)(C)OC(=O)NCc1cc(-c2cccnc2)n[nH]1
34 | 106 to 107 °C | CC(=O)c1ccc(CCNS(=O)(=O)c2ccc(F)cc2)cc1
35 | 112 to 130 °C | CC(=O)Nc1nc2c(Oc3cc(-c4ccc(C(F)(F)F)cc4)c(-c4ccc(F)cc4)cn3)cccc2s1
36 | 169 °C | CC(=O)c1ccccc1NC(C(N)=O)c1c(Cl)cccc1Cl (stereo not drawn)
37 | 140 to 141 °C | O=C(O)CCCNC(=O)c1cc(Br)no1
38 | > 265 °C | C=CC(=O)Nc1ccc2c(Nc3cccc(Br)c3)ncnc2c1
39 | 213 to 215 °C | O=C(O)/C=C/C=C(c1ccc(Cl)cc1)c1ccc(Cl)cc1
40 | 138 to 140 °C | COc1ccc2c3c(ccc2c1)CC(=O)C3
41 | 228 to 230 °C | O=C(O)C1(c2ccc(Cl)cc2)OCC(c2ccc(F)cc2)(c2ccc(F)cc2)CO1
42 | 89 to 90 °C | CC(C)c1c(Sc2ccc(O)cc2)n(C)c2ccccc12
43 | 67.6 to 68.5 °C | CCCCCCC(C)Oc1ccc(-c2ccc(C(C)=O)cc2)cc1F (stereo not drawn)
44 | 83 to 89 °C | CNC(=O)c1ccccc1Nc1nc(Nc2cc3c(cc2OC)CCN(CC(=O)N(C)C)CC3)ncc1Cl
45 | 88 to 90 °C | CN1CCc2ccccc21
46 | 138 °C | Cc1cc(SCc2ccc(-c3ccccc3)cc2)ccc1OCC(=O)O
47 | 229 to 231 °C | Cc1cc(C)c(-c2c(O)c(Cl)c(-c3ccc(Cl)cc3)oc2=O)c(C)c1
48 | 24 to 25 °C | CC(CSC#N)C(=O)O (stereo not drawn)
49 | 223 to 225 °C | CCn1c(=O)c(-c2ccsc2)cc2cnc(Nc3ccccc3)nc21
50 | 133 to 134 °C | COC(=O)COc1ccc([C@H]2c3ccc(O)cc3OC[C@H]2c2ccccc2)cc1 (racemic)

Row | melting point | Compound
51 | 148 to 153 °C | COc1ccc(C=C2OC(=O)c3ccccc32)cc1N
52 | 119 °C | Cc1cccc(-c2nccc(-c3ccccc3C)n2)n1
53 | 172 to 174 °C | C=CCN(CC=C)c1nc(NC(=O)OCC)n2oc(=O)nc2n1
54 | 132 to 133 °C | O=C1C(=O)N(CCCCN2CCN(C(c3ccccc3)c3ccccc3)CC2)c2ccc(Br)cc21
55 | 145 to 146 °C | COc1cc2c(c(Cl)c1Cl)C(=O)C(C)(c1cccs1)C2 (stereo not drawn)
56 | 153 to 154 °C | Cc1cc(OCC(F)(F)F)c(NC(=O)CBr)c(OCC(F)(F)F)n1
57 | 70 to 71 °C | CCOC(=O)C(=O)N(C)c1cccccc1=O
58 | 131 to 132 °C | CC(C)=CCC[C@H](C)CC(=NO)C(C[C@@H](C)CCC=C(C)C)=NO
59 | 187 to 189 °C | Cc1c(C(=O)O)cnn1-c1c(Cl)cc(C(F)(F)F)cc1Cl
60 | 80 to 82 °C | CN(C)C=C(C#N)C(=O)c1cccc(Oc2ccccc2)c1
61 | 161 to 163 °C | O=C(NC1CCSCC1)c1cnccc1C(F)(F)F
62 | 81 to 82 °C | NCC#CC1(Cl)C=CC=CC1C(=O)c1ccccc1Cl (stereo not drawn)
63 | 90 °C | O=C(O)CC(CNC(=O)C1Cc2ccccc2N1S(=O)(=O)c1ccc(-c2cccc(C(F)(F)F)c2)cc1)c1ccccc1 (stereo not drawn)
64 | 97.5 to 100 °C | CS(=O)(=O)Nc1ccc(C(=O)NC(=O)N2CCC(Cc3ccccc3)CC2)cc1
65 | 43 to 44 °C | Cc1cncc(/C=C/c2cccc(F)c2)n1
66 | 200 to 203 °C | COC(=O)COc1ccc(C(=O)CNC(=O)c2ccc(C#N)cc2)cc1
67 | 148 to 150 °C | COc1cn(-c2ccc(-n3cccn3)cc2F)nc(-c2ccnn2-c2cccc(OC(F)(F)F)c2)c1=O
68 | 184 to 185 °C | O=C(O)CC(Br)C(Br)c1ccc(Cl)cc1Cl (stereo not drawn)
69 | 138 °C | CC(=O)NCCC[C@H]1NC(=O)[C@@H](Cc2cn(C)c3ccccc23)NC1=O
70 | > 350 °C | O=c1c2c([nH]c3nc(N4CCCCC4)nn13)CCCS2
71 | 187 to 188 °C | O=C(NNC(=O)c1ncnc2[nH]ccc12)OCc1ccccc1
72 | 122 to 125 °C | CC(=O)SC(CC(=O)c1ccc(Oc2cccc(Cl)c2)cc1)C(=O)O (stereo not drawn)
73 | 297 to 300 °C | O=C1Nc2cc(F)ccc2C1c1ncnc2nn(C3CCCCC3)cc12 (stereo not drawn)

Source: a melting point compilation (Tetko et al.; mined from patent text by program, amines drawn as free bases though some values may be those of a salt)
